Experimental findings from US7655756B2 (Johnson & Johnson Pharmaceutical Research & Development, LLC, priority 2005, dated 2010) are described below.

In one assay the target is T1, ERRγ (Homo sapiens, UniProt P62508).
T1 construct: 6His; made in house; host or cells: E. coli BL21(DE3)
T1 sequence (P62508 229-458): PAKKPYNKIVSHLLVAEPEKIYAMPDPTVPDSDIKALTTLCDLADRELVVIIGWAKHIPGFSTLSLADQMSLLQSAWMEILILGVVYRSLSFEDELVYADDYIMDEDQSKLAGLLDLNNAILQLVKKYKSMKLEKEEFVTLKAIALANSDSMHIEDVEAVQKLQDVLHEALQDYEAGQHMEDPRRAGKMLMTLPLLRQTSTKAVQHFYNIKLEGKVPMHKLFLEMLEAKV
The assay is described as follows: Isothermal titration calorimetry. It is filed as binding. The conditions noted are these: isothermal titration calorimetry. The procedure:
The heat of interaction of the ligands with ERRγ molecules was measured by using the Omega titration calorimeter from Microcal Inc. In a typical titration, 1.4 mL of a 20 μM protein solution is titrated with a ligand solution of ˜0.4 mM concentration using a 100 μL syringe by ˜20 injections of 5-6 μL each. This syringe is also used to mix the reactants completely in the sample cell by rotating it at 400 rpm. For each injection, the area under the resulting peak is proportional to the heat of interaction, Q. Once this heat is corrected for the titrant dilution and normalized by the titrant solution concentration it becomes equal to the binding enthalpy, ΔHb, under nonsaturating conditions. The precision of the heat of each injection is about 0.5 μcal. One method of determining ΔHb is to average several intermediate peaks from the different sites. In addition to the binding enthalpies, one can obtain binding affinities, and overall stoichiometries of the complexes. The experimental calorimetric binding isotherm is the dependence of the total heat, Qr, (or dQrldX T) on the total concentration of ligand added, Xr. The above three parameters for each type of site are determined iteratively using the Marquardt algorithms as described previously.

A further assay has as its target T2, ERRγ-SRC2 complex (Homo sapiens, UniProt P62508).
T2 construct: made in house; host or cells: E. coli BL21(DE3) (ERRγ LBD)
T2 sequence (P62508 229-458): T1 sequence (P62508 229-458)
The assay is described as follows: TR-FRET co-activator recruitment assay. It is filed as biochemical. As to conditions: for Displacement of co-activator peptide from ERRγ (antagonism), in words: 6 nM ERRγ LBD, 6 nM GST-SRC-2 peptide. The procedure:
For FRET measurements, the reaction was buffered in 25 mM Tris pH 8, 2.5 mM Hepes, 20 mM KCl, 1 mM DTT, and 0.05 mg/mL delipidated BSA.
Time-resolved Fluorescence resonance energy transfer (FRET) experiments were performed to examine the functional response of ERRγ ligands.
For FRET measurements, the reaction was buffered in 25 mM Tris pH 8, 2.5 mM Hepes, 20 mM KCl, 1 mM DTT, and 0.05 mg/mL BSA (-lipids). […] Reactions were allowed to reach equilibrium at 25° C. for 4-18 hours before collecting data on the Analyst from LJL Biosystems (Molecular Devices Sunnyvale, Calif.). […] Dose response curves were fitted using a hyperbolic equation and the data reported is the average of three independent experiments.

The target of a further assay is T3, ERRα (Homo sapiens, UniProt P11474).
T3 sequence (P11474 193-421 limits assumed): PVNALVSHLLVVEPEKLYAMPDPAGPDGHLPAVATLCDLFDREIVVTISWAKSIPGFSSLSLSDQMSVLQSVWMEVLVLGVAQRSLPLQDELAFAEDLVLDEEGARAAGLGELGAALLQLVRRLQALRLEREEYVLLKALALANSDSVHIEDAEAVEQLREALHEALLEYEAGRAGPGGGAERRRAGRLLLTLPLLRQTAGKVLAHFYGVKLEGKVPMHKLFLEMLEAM
The assay is described as follows: ThermoFluor thermal shift assay, ERRα. It is filed as binding. As to conditions: 100 μM test compound; 0.1 mg/mL protein, 25 mM HEPES pH 8.0, 25 μM ANS, 2% DMSO; Tm free protein 54.4 °C; read-out: ΔTm, thermal stabilization of ERRα.

For the next assay, the system named is pBIND-Gal4-ERRγ. Description: Cell based reporter (trans-activation) assay in HEK293E cells. The conditions noted are these: luciferase reporter, Gal4-ERRγ and pACT-SRC2, 24 hours of compound treatment.

Experimental for pBIND-Gal4-ERRγ: A cell based reporter assay was used to determine the functional response of the ERRγ hits. Transfections were performed in HEK293E cells that were maintained in DMEM supplemented in glutamine and 10% FBS. Co-transfections of 4 μg of a luciferase reporter plasmid and 4 μg of each pBIND-Gal4-ERRγ and pACT-SRC2 plasmids per T-75 flask were done using Lipofectamine as per manufacturers instructions. Twenty-four hours post-transfection, the cells were seeded in 96-well plates at density of 50,000 cells per well in assay media (DMEM phenol free, 5% charcoal stripped FBS). […] After 24 hours of compound treatment, cells were lysed and treated with the Promega Dual-Glo system. Firefly Luciferase activity was read using a luminescence plate reader, and data were normalized against Renilla luciferase activity. Data were fitted using subroutines available from GraphPad.

Regarding `Cc1cc(O)ccc1Cl` [ClCH3Ph, 4-chloro, 3-methyl phenol], the “Binding enthalpy ΔHb” value on ERRγ was ~-21 kcal/mol. Moreover, on ERRγ-SRC2 complex, the “Enhancement in the affinity of the receptor for co-activator peptide fragments, in words” value is given as “not able to demonstrate” and the “Displacement of co-activator peptide from ERRγ (antagonism), in words” value is “neither ligand displaced co-activator peptide”. At ERRγ-SRC2 complex (listed as ClCh3PH), the “Displacement of co-activator peptide from ERRγ (antagonism), in words” value was “ineffective”. In addition, at ERRα, the ΔTm at 100 µM was 0.1 °C. Further, in the assay with pBIND-Gal4-ERRγ, the “Change in transcriptional activity in trans-activation cellular assay, in words” value is on record as “not able to demonstrate”.
